Measured values from patent publication US5807860A, “Urea derivatives” (Mitsubishi Chemical Corporation, priority 1995, dated 1998).
Counter-ions that a name gives are not always drawn.

target: T1, ACAT of HepG2 cells (Homo sapiens, UniProt P35610); assay: Inhibitory activity against ACAT of HepG2 cells derived from human liver cancer cells; format: cell-based; settings: radio-labelled oleic acid/BSA complex, cholesterol oleate produced
T1 construct: endogenous in cells; host or cells: HepG2
T1 sequence (P35610 1-550): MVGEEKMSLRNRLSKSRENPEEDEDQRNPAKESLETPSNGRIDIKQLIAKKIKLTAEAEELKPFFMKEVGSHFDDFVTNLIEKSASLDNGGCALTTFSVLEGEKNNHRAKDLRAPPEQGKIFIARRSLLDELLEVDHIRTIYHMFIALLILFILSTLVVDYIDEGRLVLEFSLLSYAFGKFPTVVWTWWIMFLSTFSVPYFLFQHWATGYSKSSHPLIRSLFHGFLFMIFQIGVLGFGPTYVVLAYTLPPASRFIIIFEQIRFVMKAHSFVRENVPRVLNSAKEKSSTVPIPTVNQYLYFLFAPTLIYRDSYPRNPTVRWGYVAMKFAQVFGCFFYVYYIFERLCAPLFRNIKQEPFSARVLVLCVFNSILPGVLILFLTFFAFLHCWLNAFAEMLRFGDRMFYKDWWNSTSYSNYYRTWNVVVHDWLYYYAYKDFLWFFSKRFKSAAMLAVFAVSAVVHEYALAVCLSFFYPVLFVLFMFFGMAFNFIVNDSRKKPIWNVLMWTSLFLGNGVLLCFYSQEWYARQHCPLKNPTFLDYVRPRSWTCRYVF
Method: Inhibitory Activity against ACAT of HepG2 cells Derived from Human Liver Cancer Cells Inhibitory activities of the compounds of the present invention against ACAT were measured by the method described below. HepG2 cells derived from human liver cancer cells were used for the measurement of the ACAT activity. A complex of radio-labelled oleic acid and bovine serum albumin was added to a culture of the cells, and the activity was measured by observing the amount of radio-labelled cholesterol oleate produced from the radio-labelled oleic acid in the cells.

Row | IC50 [nM] | SMILES
1 | 320 | CCCCCN(Cc1ccc(OC)cc1OCc1ccccn1)C(=O)Nc1c(C)cccc1OCCCN1CCN(c2ccccc2)CC1 [Example 40]
2 | 732 | CCCCCN(Cc1cccc(OC)c1OCc1ccccn1)C(=O)Nc1c(OCCCN2CCN(c3ccccc3)CC2)ccc2c1CCCC2 [Example 28]
3 | 164 | CCCCCN(Cc1cc(-n2ccnc2)ccc1OC)C(=O)Nc1c(C)cccc1OCCN1CCN(c2ccccc2)CC1 [Example 18]
4 | 483 | CCCCCN(Cc1cc(-n2cccc2)ccc1OC)C(=O)Nc1c(C)cccc1OCCCN1CCN(c2ccccc2)CC1 [Example 55]
5 | 270 | CCCCCN(Cc1cccc(OCc2ccccn2)c1)C(=O)Nc1c(C)cccc1OCCCN1CCN(c2ccccc2)CC1 [Example 36]
6 | 128 | CCCCCN(Cc1cc(-n2ccnc2)ccc1OC)C(=O)Nc1c(C)cccc1OCCCN1CCN(c2ccccc2)CC1 [Example 1, N-{5-(1-imidazolyl)-2-methoxyphenyl}methyl-N-(1-pentyl)-N'-[2-{3-(4-phenyl-1-piperazinyl)propoxy}-6-methylphenyl]urea]
7 | 366 | COc1cccc(CN(CCCc2ccccc2)C(=O)Nc2c(OCCCN3CCN(c4ccccc4)CC3)ccc3c2CCCC3)c1OCc1ccccc1 [Example 9]
8 | 282 | CCCCCN(Cc1ccc(-n2ccnc2)cc1)C(=O)Nc1c(C)cccc1OCCCN1CCN(c2ccccc2)CC1 [Example 38]
9 | 138 | CCCCCN(Cc1cc(-n2ccnc2)ccc1OCc1ccccn1)C(=O)Nc1c(C)cccc1OCCCN1CCN(c2ccccc2)CC1 [Example 31]
10 | 189 | CCCCCN(Cc1ccc(-n2ccnc2)cc1)C(=O)Nc1c(C)cccc1OCCCN1CCN(c2ccccc2)CC1 [Example 11]
11 | 449 | CCCCCN(Cc1cc(-n2ccnc2)cc2c1OCO2)C(=O)Nc1c(C)cccc1OCCCN1CCN(c2ccccc2)CC1 [Example 24]
12 | 187 | CCCN(Cc1ccccc1OCc1ccccn1)C(=O)Nc1c(OCCCN2CCN(c3ccccc3)CC2)ccc2c1CCCC2 [Example 68]
13 | 54 | CCCCCN(CCc1cc(-n2ccnc2)ccc1OC)C(=O)Nc1c(C)cccc1OCCCN1CCN(c2ccccc2)CC1 [Example 56]
14 | 220 | CCCCCN(Cc1cc(OC)ccc1-n1ccnc1)C(=O)Nc1c(C)cccc1OCCCN1CCN(c2ccccc2)CC1 [Example 57]
15 | 76 | CCCCCN(CCc1ccc(-n2ccnc2)c(OC)c1)C(=O)Nc1c(C)cccc1OCCCN1CCN(c2ccccc2)CC1 [Example 46]
16 | 124 | O=C(Nc1c(OCCCN2CCN(c3ccccc3)CC2)ccc2c1CCCC2)N(CCCc1ccccc1)Cc1ccccc1OCc1ccccn1 [Example 67]
17 | 89 | CCCCCN(Cc1ccc(OCc2ccccn2)cc1)C(=O)Nc1c(C)cccc1OCCCN1CCN(c2ccccc2)CC1 [Example 34]
18 | 363 | CCCCCN(Cc1cc(-n2ccnc2)ccc1OC)C(=O)Nc1c(C)cccc1OCCCN1CCN(c2ccccn2)CC1 [Example 17]
19 | 45 | CCCCCN(Cc1cc(-n2cncn2)ccc1OC)C(=O)Nc1c(C)cccc1OCCCN1CCN(c2ccccc2)CC1 [Example 49]
20 | 634 | CCCN(Cc1cc(-n2ccnc2)cc2c1OCO2)C(=O)Nc1c(C)cccc1OCCCN1CCN(c2ccccc2)CC1 [Example 23]
21 | 156 | CCCN(Cc1cc(-n2ccnc2)ccc1OC)C(=O)Nc1c(C)cccc1OCCCN1CCN(c2ccccc2)CC1 [Example 19]
22 | 458 | COc1ccc(-n2ccnc2)cc1CN(CC(C)C)C(=O)Nc1c(C)cccc1OCCCN1CCN(c2ccccc2)CC1 [Example 73]

Row | IC50 [nM] | SMILES
23 | 414 | CCCCCCCN(Cc1cccc(OC)c1OCc1ccccc1)C(=O)Nc1c(OCCCN2CCN(c3ccccc3)CC2)ccc2c1CCCC2 [Example 8]
24 | 743 | CCCCCN(Cc1cccc(OC)c1OCc1ccccn1)C(=O)Nc1c(C)cccc1OCCCN1CCN(c2ccccc2)CC1 [Example 26]
25 | 851 | CCCCCN(Cc1cc(-n2ccnc2)cc(OC)c1OC)C(=O)Nc1c(C)cccc1OCCCN1CCN(c2ccccc2)CC1 [Example 20]
26 | 606 | CCCCCN(CCc1cc(-n2ccnc2)cc2c1OCO2)C(=O)Nc1c(C)cccc1OCCCN1CCN(c2ccccc2)CC1 [Example 53]
27 | 234 | CCCCCN(Cc1cc(-n2ccnc2)ccc1OCc1ccccn1)C(=O)Nc1c(C)cccc1OCCCN1CCN(c2ccccc2)CC1 [Example 30]
28 | 240 | COc1ccc(-n2ccnc2)cc1CN(Cc1ccccc1)C(=O)Nc1c(C)cccc1OCCCN1CCN(c2ccccc2)CC1 [Example 14]
29 | 81 | CCCCCN(Cc1cc(-n2cccn2)ccc1OC)C(=O)Nc1c(C)cccc1OCCCN1CCN(c2ccccc2)CC1 [Example 47]
30 | 635 | CN(Cc1ccccc1OCc1ccccn1)C(=O)Nc1c(OCCCN2CCN(c3ccccc3)CC2)ccc2c1CCCC2 [Example 71]
31 | 101 | CCCCCN(Cc1cc(-n2ccnc2)ccc1OC)C(=O)Nc1c(C)cccc1OCCCN1CCN(c2ccccc2)CC1 [Example 2, N-{5-(1-imidazolyl)-2-methoxyphenyl}methyl-N-(1-pentyl)-N'-[2-{3-(4-phenyl-1-piperazinyl)propoxy}-6-methyphenyl]urea trihydrochloride]
32 | 262 | COc1ccc(-n2ccnc2)cc1CN(C(=O)Nc1c(C)cccc1OCCCN1CCN(c2ccccc2)CC1)C1CCCC1 [Example 72]
33 | 516 | CCCCCN(Cc1ccccc1-n1ccnc1)C(=O)Nc1c(C)cccc1OCCCN1CCN(c2ccccc2)CC1 [Example 15]
34 | 595 | CCCCCN(Cc1ccc(-n2ccnc2)cc1)C(=O)Nc1c(C)cccc1OCCCN1CCN(c2ccccn2)CC1 [Example 12]
35 | 220 | CCCCCN(Cc1cccc(-n2ccnc2)c1)C(=O)Nc1c(C)cccc1OCCCN1CCN(c2ccccc2)CC1 [Example 37]
36 | 289 | CCCN(Cc1ccccc1OCc1cccnc1)C(=O)Nc1c(OCCCN2CCN(c3ccccc3)CC2)ccc2c1CCCC2 [Example 69]
37 | 600 | CCCCCN(Cc1ccccc1OCc1ccccn1)C(=O)Nc1c(C)cccc1OCCCN1CCN(c2ccccc2)CC1 [Example 32]
38 | 631 | CCCN(Cc1ccccc1OCc1ccncc1)C(=O)Nc1c(OCCCN2CCN(c3ccccc3)CC2)ccc2c1CCCC2 [Example 70]
39 | 584 | CCCCCN(Cc1ccc(OC)c(-n2ccnc2)c1)C(=O)Nc1c(C)cccc1OCCCN1CCN(c2ccccc2)CC1 [Example 58]
40 | 67 | COc1ccc(-n2ccnc2)cc1CN(Cc1ccccc1)C(=O)Nc1c(OCCCN2CCN(c3ccccc3)CC2)ccc2c1CCCC2 [Example 13]
41 | 389 | CCCCCN(Cc1ccc(-n2ccnc2)cc1)C(=O)Nc1c(OCCCN2CCN(c3ccccc3)CC2)ccc2c1CCCC2 [Example 10]
42 | 386 | COc1ccc(-n2ccnc2)cc1CN(C(=O)Nc1c(C)cccc1OCCCN1CCN(c2ccccc2)CC1)C(C)C [Example 74]
43 | 400 | CCCCCN(Cc1ccc(OCc2ccccn2)c(OC)c1)C(=O)Nc1c(C)cccc1OCCCN1CCN(c2ccccc2)CC1 [Example 44]

target: T2, ACAT in foamed macrophages (Mus musculus, UniProt Q61263); assay: Inhibitory activity against ACAT derived from foamed macrophages; format: cell-based, mouse (ddY female mice); settings: foamed macrophages from ddY female mice; acetylated LDL, 24 hours; cholesterol oleate produced; read-out: Inhibitory activity against ACAT, Macrophage (IC50)
T2 construct: endogenous in cells; host or cells: peritoneal macrophages of ddY female mice, foamed with acetylated LDL
T2 sequence (Q61263 1-540): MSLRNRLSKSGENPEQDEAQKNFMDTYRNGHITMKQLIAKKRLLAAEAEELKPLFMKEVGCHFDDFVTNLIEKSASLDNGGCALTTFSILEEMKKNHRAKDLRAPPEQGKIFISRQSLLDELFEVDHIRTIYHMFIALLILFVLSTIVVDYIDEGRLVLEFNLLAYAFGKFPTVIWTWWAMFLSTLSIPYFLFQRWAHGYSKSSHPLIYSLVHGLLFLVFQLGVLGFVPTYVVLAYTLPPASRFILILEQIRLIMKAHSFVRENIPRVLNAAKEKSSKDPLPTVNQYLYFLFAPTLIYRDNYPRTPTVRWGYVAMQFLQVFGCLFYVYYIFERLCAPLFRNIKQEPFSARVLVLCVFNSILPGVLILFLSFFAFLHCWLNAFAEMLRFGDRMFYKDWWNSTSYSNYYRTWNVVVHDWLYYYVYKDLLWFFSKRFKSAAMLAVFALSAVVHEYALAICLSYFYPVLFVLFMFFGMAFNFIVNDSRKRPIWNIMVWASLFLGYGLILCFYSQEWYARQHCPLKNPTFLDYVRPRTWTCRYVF
Method: Inhibitory Activity against ACAT Derived from Foamed Macrophages
Inhibitory activity of the compounds of the present invention against ACAT in foamed macrophages was measured by the methods set out below. Acetylated low density lipoprotein was added to macrophages taken from abdominal cavities of ddY female mice and the cells were incubated for 24 hours to obtain foaming macrophages. These cells accumulated a large amount of cholesterol (ester) inside the cells, and are used as a model of arteriosclerosis lesion. ACAT activity of the cells was determined by adding a complex of radio-labelled oleic acid and bovine serum albumin to the cell culture, and observing the amount of radio-labelled cholesterol oleate that was produced from the radio-labelled oleic acid in the cells. The inhibitory activities of the compounds of the present invention against ACAT were measured as follows: percent reduction rates of enzymatic activity by the addition of given concentrations of test compounds was observed on the basis of the amount of the produced cholesterol oleate in the control group without the addition of a test compound, and by using the results, IC50, i.e., concentrations of tested compounds required to inhibit 50% of the enzyme activity, was calculated.

Row | IC50 [nM] | SMILES
44 | 440 | CCCCCN(Cc1cc(-n2ccnc2)ccc1OC)C(=O)Nc1c(C)cccc1OCCN1CCN(c2ccccc2)CC1 [Example 18]
45 | 119 | CCCCCN(Cc1ccc(OCc2ccccn2)cc1)C(=O)Nc1c(C)cccc1OCCCN1CCN(c2ccccc2)CC1 [Example 34]
46 | 131 | CCCCCN(Cc1cc(-n2ccnc2)ccc1OC)C(=O)Nc1c(C)cccc1OCCCN1CCN(c2ccccc2)CC1 [Example 2, N-{5-(1-imidazolyl)-2-methoxyphenyl}methyl-N-(1-pentyl)-N'-[2-{3-(4-phenyl-1-piperazinyl)propoxy}-6-methyphenyl]urea trihydrochloride]
47 | 1050 | CCCCCN(Cc1ccc(OC)c(-n2ccnc2)c1)C(=O)Nc1c(C)cccc1OCCCN1CCN(c2ccccc2)CC1 [Example 58]
